Molecular target: SARS2 protease (Severe acute respiratory syndrome coronavirus 2, UniProt P0DTD1)
Assay: SARS-CoV-2 protease inhibition assay (SARS2 FRET protease assay)
Assay type: biochemical
Details: SARS-CoV-2 protease 25 nM, FRET, peptide substrate 1.3 μM, 30 minutes at 30° C., compounds 20 μM to 1.0 nM; read-out: IC50

Compound	IC50 [nM]
CC(C)C[C@H](NC(=O)O[C@@H](c1cccc(F)c1)C(C)(C)c1cccc(Cl)c1)C(=O)N[C@@H](C[C@@H]1CCNC1=O)C(=O)C(=O)NC1CC1 [Compound C285]	80
CC(C)C[C@H](NC(=O)OC(c1cccc(Cl)c1)C(C)(C)c1cccc(Cl)c1)C(=O)N[C@@H](C[C@@H]1CCNC1=O)C(=O)C(=O)NC1CC1 (stereo partly drawn) [Compound C286]	70
CCN1CCN(C(=O)C(=O)[C@H](C[C@@H]2CCNC2=O)NC(=O)[C@H](CC(C)C)NC(=O)OC(c2ccccc2)C(C)(C)c2cccc(Cl)c2)CC1 (stereo partly drawn) [Compound C287]	> 20000
CC1(C)CC(CC(NC(=O)[C@H](CC2CCCCC2)NC(=O)OC(c2cccc(Cl)c2)C(C)(C)c2cccc(Cl)c2)C(=O)C(N)=O)C(=O)N1 (stereo partly drawn) [Compound C288]	2230
CCCCC[C@H](NC(=O)OC(c1ccccc1)C(C)(C)c1cccc(Cl)c1)C(=O)N[C@@H](C[C@@H]1CCNC1=O)C(=O)C(=O)NC1CC1 (stereo partly drawn) [Compound C289]	370
O=C(N[C@@H](CC1CCCCC1)C(=O)NC(CC1CC2(CCC2)NC1=O)C(=O)C(=O)NC1CC1)OCc1cccc(Cl)c1 (stereo partly drawn) [Compound C290, 3-Chlorobenzyl ((2S)-3-cyclohexyl-1-((4-(cyclopropylamino)-3,4-dioxo-1-(6-oxo-5-azaspiro[3.4]octan-7-yl)butan-2-yl)amino)-1-oxopropan-2-yl)carbamate]	508
